Data on six molecules can be found in patent publication US10213451B2, “Methods and compounds for modulating the secretion or expression of adhesion proteins or angiopoietins of cells” (PACIFIC ARROW LIMITED, priority 2004, dated 2019).

In brackets after ≈: the same amount, converted by molar mass. Where two headings read alike, the source gives them in different places.

Data set [1] has as its system Fibronectin secretion from ES2 cells. As to the kind of experiment: Fibronectin secretion (Western blot), ES2 cells. Type of data set: cell-based, human. The settings on record: for inhibition at 10 µg/mL: Homo sapiens, ES-2, ES2 cells; for Fibronectin secreted into medium, % of DMSO control: 24 hours. The procedure:
Inhibition of Fibronectin secretion is physiological and the determination of its quantity is based on the following criteria: • 1. Fibronectin is secreted from viable cells. Only cell with over 85% viable cells after drug-treatment are employed in these experiments. The viable cells were determined by MTT assay. • 2. For comparison, the immuno-band intensity from each samples are normalized with cell mass. The cell mass was determined by the MTT assay and is assigned as a MTT unit for each cell sample.
Cells: ES2 cells were grew in T-25 flask with RPMI 1640 medium over night before drug-treatment. Drug-treatment: cells cultures were replaced with fresh RPMI medium with Xanifolia-Y (10 ug/ml final concentration) or DMSO (as control) at 0 hour. At 1, 2, 4, 8 and 24 hour, aliquot of culture medium was taken out for Fibronectin determination. Fibronectin was determined by Western blot with monoclonal antibody (SIGMA) specific to human Fibronectin only.
Drug-treatment: cells cultures were replaced with fresh RPMI medium containing Xanifolia-Y (10 ug/ml final concentration) or DMSO (as control) at 0 hour. At 4 hours (A) or 8 hour (B), culture medium was replaced with fresh culture medium without drug. At 2, 4, 8 and 24 hour, aliquot of culture medium was taken out for Fibronectin determination. Fibronectin (FN) was determined by Western blot with monoclonal antibody (SIGMA) specific only to human Fibronectin.
(§1) Drug-treatment: cells cultures were replaced with fresh RPMI medium containing Xanifolia-Y (10 ug/ml final concentration) or DMSO (as control) at 0 hour. At 2, and 18 hour, aliquot of culture medium was taken out for Fibronectin determination (Western blot method). Cell viability at 18 hours was determined by MTT assay. Cultures were replaced with RPMI medium with MTT and incubated for an hour. The formation of formazan was dissolved in DMSO and OD at 570 nm was measured.
Cells and Drug-treatment: same as previous experiments. After 7 or 24 hours, aliquot of culture medium was taken out for Fibronectin determination (Western blot method). Cell viability at 24 hours was determined by MTT assay.
Cells: ES2 cells were grew in RPMI 1640 medium over night before drug-treatment. Drug-treatment: cells cultures were replaced with fresh RPMI medium containing DMSO (as control) [D]; Xanifolia-Y (10 ug/ml) [Y]; or Paclitaxel 10 or 50 ng/ml [T10, ro T50]. After 24 hours, aliquot of culture medium was taken out for Fibronectin determination (Western blot method). Cell viability at 24 hours was determined by MTT assay.
The amount of Fibronectin secreted by cells into medium was determined by Western blot assay. The amount of Fibronectin secreted per cells basis was determined by dividing the Western-band intensity with the MTT unit.
Western Blot: Spent culture medium (0.6 ml) was mixed with SDS sample buffer (0.2 ml), boiled for 3 minutes before loading to SDS gel. Samples (60 ul/lane) were applied to a 6% SDS gel and electrophoresis was conducted with 100 volts for 2 hours. Protein was transferred to a nitrocellulose paper electrophoretically (30 min at 100 volts). The Western blot was incubated with the first antibody (mouse anti-FN, specific to human FN, SIGMA F0916) and second antibody (Anti-mouse IgG AP conjugated, Promega S3721). The immunobands were developed with BCIP/NBT color development system (Promega S3771).

Data set [2] has as its system Fibronectin secretion from lung carcinoma cells (H460). As to the kind of experiment: Fibronectin secretion (Western blot), H460 cells. Type of data set: cell-based, human. Particulars: Homo sapiens, NCI-H460, H460 cells, 10 ug/ml.
The test system of data set [3] is Fibronectin secretion from bladder carcinoma cells (HTB-9). The data set can be described thus: Fibronectin secretion (Western blot), HTB-9 cells. Type of data set: cell-based, human. Particulars: 10 ug/ml.
The test system of data set [4] is Fibronectin secretion from liver HepG2 cells. The data set can be described thus: Fibronectin secretion (Western blot), HepG2 cells. The settings on record: 10 ug/ml; for % inhibition of Fibronectin secretion: HepG2 cells. Type of data set: cell-based, human.
In data set [5] the test system is Fibronectin secretion from brain glioblastoma T98G cells. As to the kind of experiment: Fibronectin secretion (Western blot), T98G cells. Type of data set: cell-based, human.
Data set [6] relates to swelling of rats' feet induced by Carrageenin. The data set can be described thus: Carrageenin-induced swollen feet model.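 Further: percent increase in foot volume over pre-inflammation volume.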 The settings on record: positive control 10.0 mg/kg fed once. It counts as in vivo, SD rats. As for the experimental part: SD rats, male, weighing 163±18 g were used in the experiment. The tested animals are allowed to acclimate for a week. The rats drink water freely. The rats were randomly divided into 5 groups: control, positive control and 3 test groups, and each group had 8 rats. The dose for 3 groups of rats are 10, 20 and 40 mg/kg. Indometacin for the positive control is 10 mg/kg and fed once after modeling. The dose of CMC-Na for the control group is the same as each test group and fed into the stomach once a day before modeling for 5 days. The tested drug was fed into the stomach 10 minutes before the animal modeling (1 mL/100 g). The volumes of right foot of each rat were measured 0.5, 1, 2 and 4 hours before and after modeling. The volumes of the right hind feet were measured at a different time, 10 minutes after inflammation induced by subcutaneous injection (with syringe needle 7) of 0.05 mL of the 1% of Carrageenin/normal saline mixture into the feet. The Rate of swelling of the feet was calculated, compared with the controls and subject to a student t-test. Rate of swelling (E) (%)=Ltn−Lt0/Lt0×100% • Ltn: volume of foot after the inflammation • Lt0: volume of foot before the inflammation

A further data set concerns ES2(ovarian) cells. As to the kind of experiment: MTT assay ES2. It counts as cell-based, human. Particulars: for viable cells by MTT units vs DMSO control: 24 hours. The procedure: (§2) MTT Assay. The procedure for MTT assay followed the method described by Carmichael et al. (1987) with modifications. The cells were seeded into a 96-well plate at concentration of 10,000/well for HTB-9, HeLa, H460, HCT116, T98G and OVCAR-3), 15,000/well for DU145, MCF-7, HepG2 and U2OS), and 40,000/well for K562 for 24 hours before drug-treatment. The cells were then exposed to the drugs for 48 hours (72 hours for HepG2 and U2OS, and 96 hours for MCF-7). After the drug-treatment, MTT (0.5 mg/mL) was added to cultures and incubated for an hour. The formazan (product of the reduction of tetrazolium by viable cells) formed and was dissolved with DMSO and the O.D. at 490 nm, and was measured by an ELISA reader. The MTT level of the cells before drug-treatment was also measured (T0). The % cell-growth (% G) is calculated as: % G=(TD−T0/TC−T0)×100(1), where TC or TD represents O.D. readings of control or drug-treated cells. When T0>TD, then the cytotoxicity (LC) expressed as % of the control is calculated as: % LC=(TD−T0/T0)×100(2).
Methods: ES2 cells were exposed to (i) Xanifolia-Y with concentrations of 40, 20, 10, 5, 2.5, and 1.25 ug/ml; or (ii) Paclitaxel with concentrations of […]; or (iii) Combined Xanifolia-Y and Paclitaxel with concentrations of each drug in same order (for example, 40 ug/ml Y plus 10 ng/ml T; 20 ug/ml Y plus 5 ng/ml T, etc. please see FIG. 28). Cells growth under these conditions was determined by the MTT assay.
as §1

Data set [7] has as its system Fibronectin secretion from skin SK-Mel-5 cells. The data set can be described thus: Fibronectin secretion (Western blot), SK-MEL-5 cells. Particulars: 20 ug/ml. Type of data set: cell-based, human.
The subject of another data set is tumor growth. The data set can be described thus: MTT anticancer activity of Y, X and hydrolysis products (FIG. 4C). It counts as cell-based. The procedure: as §2
(A) Alkaline Hydrolysis of Xanifolia-Y: 20 mg of Xanifolia-Y was dissolved in 0.5 mL of 1M NaOH. The solution was incubated in an 80° C. water bath for 4 hours. It was cooled to room temperature before being neutralized with 0.5 mL 1 N HCl (adjusted pH to about 3). The mixture was extracted with 2 mL 1-butanol 3 times. The butanol fractions were collected and lyophilized. The hydrolyzed saponin was further purified with HPLC in a C-18 column eluted with 25% acetonitrile.
(B) Acid Hydrolysis of Xanifolia-Y: 15 mg Xanifolia-Y was dissolved in 1 mL of Methanol. 1 mL of 2N HCl was then added. The mixture was refluxed in an 80° C. water bath for 5 hours. The solution was then neutralized by adding 2 mL of 1N NaOH (to a final pH 3-4). The aglycone was then extracted with ethylacetate 3 mL×3. The extracts were collected and pooled. Further isolation of aglycone (sugar-removed Xanifolia-Y) was achieved by HPLC with isocratic elution of 80% acetonitrile.

In the case of `C/C=C(/C)C(=O)O[C@H]1[C@H](O)[C@@]2(COC(=O)C(C)CC)C(CC1(C)C)C1=CCC3[C@@]4(C)CC[C@H](O[C@@H]5OC(C(=O)O)[C@@H](O)C(O[C@@H]6O[C@@H](CO)C(O)C6O)C5O[C@@H]5OC(CO)[C@H](O)C(O)C5O)C(C)(C)C4CC[C@@]3(C)[C@]1(C)[C@@H](O)[C@H]2O` (stereo partly drawn) [Xanifolia Y7, 3-O-[β-D-galactopyranosyl-(1→2)]-α-L-arabinofuranosyl-(1→3)-β-D-glucuronopyranosyl-21-O-angeloyl-28-O-2-methylbutanoyl-3β, 15α, 16α, 21β, 22α, 28-hexahydroxyolean-12-ene], the inhibition at 10 µg/mL in data set [1] (10 ug/ml) stood at 34%; in data set [2], 18%; in data set [3] (Homo sapiens), 60%; in data set [4] (Homo sapiens, HepG2, HepG2 cells), 10%; in data set [5] (Homo sapiens, T98G, 10 ug/ml), 24%.

Consider `C/C=C(/C)C(=O)O[C@H]1[C@H](OC(=O)/C(C)=C\C)[C@@]2(CO)C(CC1(C)C)C1=CCC3[C@@]4(C)CC[C@H](O[C@@H]5OC(C(=O)O)[C@@H](O)C(O)C5O[C@@H]5OC(CO)[C@H](O)C(O)C5O)C(C)(C)C4CC[C@@]3(C)[C@]1(C)[C@@H](O)[C@H]2O` (some centres unmarked) [Xanifolia Y5], for which the inhibition at 10 µg/mL in [1] (10 ug/ml) stood at 68%. Moreover, the “% inhibition of Fibronectin secretion” value in data set [4] is “have inhibition effect”.

Consider `COc1ccc2c(c1)c(CC(=O)O)c(C)n2C(=O)c1ccc(Cl)cc1` [Indometacin, reference compound], for which the “Swelling rate after administration (%)” value in data set [6] (0.5 hour) turned out to be 11.8%; in data set [6] (1 hour) it was 14.7%; in [6] (2 hours), 12.8%; in data set [6] (4 hours), 10.7%.

Regarding beta-Escin [reference compound], the “growth of cells compared to the DMSO control (MTT)” value with ES2(ovarian) cells (ES2, 10 ug/ml (F13)) was found to be 90%; in the data set on ES2(ovarian) cells (ES2, 20 ug/ml (F13)), 82%. Also, the “% inhibition of Fibronectin secretion” value is reported as 7% in [1] (ES2 cells, 10 ug/ml); 19% in [1] (ES2 cells, 10 ug/ml, listed as β-ES); 48% in [1] (ES2 cells, 20 ug/ml); 47% in data set [3]; “have inhibition effect” in [4] (listed as ES); 44% in data set [4] (listed as β-ES). Also, the results for the “% inhibition of Fibronectin secretion” value in data set [5] (20 ug/ml) and in data set [7] were 66% and 17%, respectively. In addition, the “Fibronectin secreted / FN band intensity, % of DMSO control” value worked out at 93% in [1] (ES2 cells, 10 ug/ml) and 52% in [1] (ES2 cells, 20 ug/ml).

Turning to `CC(=O)O[C@H]1C(=O)[C@@]2(C)[C@H]([C@H](OC(=O)c3ccccc3)[C@]3(O)C[C@H](OC(=O)[C@H](O)[C@@H](NC(=O)c4ccccc4)c4ccccc4)C(C)=C1C3(C)C)[C@]1(OC(C)=O)CO[C@@H]1C[C@@H]2O` [Paclitaxel, reference compound], the “viable cells by MTT units vs DMSO control” value in the data set with ES2(ovarian) cells (ES2, 10 ng/ml) is on record as 94%; in the data set on ES2(ovarian) cells (ES2, 50 ng/ml), 91%. In addition, the IC50 in the data set on ES2(ovarian) cells (ES2 cells, used singly) came to 1.25 ng/mL (≈ 1.46 nM); with ES2(ovarian) cells (Homo sapiens, ES-2, ES2 cells, combined with Xanifolia-Y, read-out: IC50 value for Paclitaxel when both drugs were used) it was 0.625 ng/mL; with ES2(ovarian) cells (Homo sapiens, ES-2, ES2 cells, used singly, read-out: IC50), 1.5 ng/mL (≈ 1.76 nM). Moreover, the “Fibronectin secreted into medium, % of DMSO control” value came to 105% in [1] (ES2 cells, 10 ng/ml) and 97% in data set [1] (ES2 cells, 50 ng/ml). For the same molecule, in data set [1] (ES2 cells, 10 to 50 ng/ml), the “inhibition of Fibronectin secretion” value is listed as “no inhibition”.

In the case of `CC1O[C@@H](OC2[C@H](OC3[C@H](O[C@H]4C(O[C@@H]5OC(CO)[C@H](O)[C@@H](O)C5O)[C@H](O[C@H]5CC[C@@]6(C)C(CC[C@]7(C)C6CC[C@]68O[C@H](O)[C@]9(C6CC(C)(C)[C@@H](O)[C@@H]9O)[C@H](O)C[C@]87C)C5(C)C)OC(C(=O)O)[C@H]4O)OC(CO)[C@H](O)[C@H]3O)OC(C)[C@H](O)[C@@H]2O)C(O)[C@@H](O)[C@H]1O` (some centres unmarked) [AKOH-Mb5], the “anticancer activity after alkaline hydrolysis” value in the data set with tumor growth is “lost anticancer activity”.
